The source made the active and inactive calls. The rule behind the calls is not given here.
Key:
NCI-H2228-Luc [1] = assay: Anticancer activity against p53-mutated human NCI-H2228-Luc cells assessed as cell viability at 0.3 to 3 uM incubated for 72 hrs by SF - cell counting reagent based colorimetric assay; format: functional; conditions: dose 0.3-3 µM
BJ = assay: Cytotoxicity against human BJ cells assessed as cell viability at 0.3 to 3 uM incubated for 72 hrs by SF - cell counting reagent based colorimetric assay; format: toxicity; conditions: dose 0.3-3 µM
[2] = Hematological toxicity in wild type mouse C-kit positive fraction of bone marrow cells assessed as decrease in colony forming capacity at 10 uM; format: cell-based; conditions: bone marrow cell
NCI-H2228-Luc [3] = assay: Induction of apoptosis in p53-mutated human NCI-H2228-Luc cells assessed as decrease in BCL11A mRNA expression at 0.3 to 1 uM incubated for 24 hrs by RT-qPCR analysis; format: functional, cell-based; conditions: dose 0.3-1 µM
[4] = Hematological toxicity in CB17.Cg.Prkdc-scid Lystbg-j/CrlCrlj mouse xenografted with human NCI-H2228-Luc cells assessed as decrease in platelets at 10 mg/kg, iv (tail vein) administered twice a week (10 injections in total) measured after 3 days; format: organism-based; conditions: in vivo, 912 h, time 38 day
NCI-H2228-Luc [5] = assay: Induction of apoptosis in p53-mutated human NCI-H2228-Luc cells assessed as early apoptotic cells at 0.3 to 3 uM incubated for 72 hrs by Annexin V-FITC and propidium iodide (PI) staining based flow cytometric analysis; format: functional, cell-based; conditions: dose 0.3-3 µM
[6] = Toxicity in CB17.Cg.Prkdc-scid Lystbg-j/CrlCrlj mouse xenografted with human NCI-H2228-Luc cells assessed as change in body weight at 5 mg/kg, iv (tail vein) administered twice a week (10 injections in total) measured after 3 days; format: organism-based; conditions: in vivo, 912 h, time 38 day
NCI-H2228-Luc [7] = assay: Induction of RUNX3 mRNA level in human NCI-H2228-Luc cells at 0.3 to 3 uM incubated for 24 hrs by RT-qPCR analysis; format: functional, cell-based; conditions: dose 0.3-3 µM
NCI-H2228-Luc [8] = assay: In vivo antitumor activity against human NCI-H2228-Luc cells xenografted in CB17.Cg.Prkdc-scid Lystbg-j/CrlCrlj mouse assessed as reduction in tumor volume at 5 mg/kg, iv (tail vein) administered twice a week (10 injections in total) measured after 3 days; format: functional, organism-based; conditions: time 38.0 day
NCI-H2228-Luc [9] = assay: Induction of apoptosis in p53-mutated human NCI-H2228-Luc cells assessed as late apoptotic cells at 0.3 to 3 uM incubated for 72 hrs by Annexin V-FITC and propidium iodide (PI) staining based flow cytometric analysis; format: functional, cell-based; conditions: dose 0.3-3 µM
NCI-H2228-Luc [10] = assay: Induction of RUNX2 mRNA level in human NCI-H2228-Luc cells at 0.3 to 3 uM incubated for 24 hrs by RT-qPCR analysis; format: functional, cell-based; conditions: dose 0.3-3 µM
NCI-H2228-Luc [11] = assay: Anticancer activity against p53-mutated human NCI-H2228-Luc cells assessed as cell viability incubated for 72 hrs by SF - cell counting reagent based colorimetric assay; format: functional; conditions: dose 0.3-3 µM
NCI-H2228-Luc [12] = assay: In vivo antitumor activity against human NCI-H2228-Luc cells xenografted in CB17.Cg.Prkdc-scid Lystbg-j/CrlCrlj mouse assessed as prolonged reduction in tumor volume at 5 mg/kg, iv (tail vein) administered twice a week (10 injections in total) measured after 35 days of last dose relative to alectinib and ceritinib; format: functional, organism-based; conditions: time 70.0 day
[13] = Hematological toxicity in CB17.Cg.Prkdc-scid Lystbg-j/CrlCrlj mouse xenografted with human NCI-H2228-Luc cells assessed as change in peripheral blood cell count at 320 microg/kg, iv for 3 months; format: organism-based; conditions: in vivo, 0.32 mg/kg, 2190 h, dose 320 µg/kg
NCI-H2228-Luc [14] = assay: Induction of apoptosis in p53-mutated human NCI-H2228-Luc cells assessed as increase in TAp73 mRNA expression incubated for 24 hrs by RT-qPCR analysis; format: functional, cell-based
NCI-H2228-Luc [15] = assay: Induction of RUNX1 mRNA level in human NCI-H2228-Luc cells at 0.3 to 3 uM incubated for 24 hrs by RT-qPCR analysis; format: functional, cell-based; conditions: dose 0.3-3 µM
NCI-H2228-Luc [16] = assay: In vivo antitumor activity against human NCI-H2228-Luc cells xenografted in CB17.Cg.Prkdc-scid Lystbg-j/CrlCrlj mouse assessed as prolonged reduction in tumor volume (cancer free) at 25 mg/kg, po administered every day (35 administration in total) measured after 8 days of last dose; format: functional, organism-based; conditions: time 43.0 day
NCI-H2228-Luc [17] = assay: In vivo antitumor activity against human NCI-H2228-Luc cells xenografted in CB17.Cg.Prkdc-scid Lystbg-j/CrlCrlj mouse assessed as prolonged reduction in tumor volume at 25 mg/kg, po administered every day (35 administration in total) measured after 77 days of last dose; format: functional, organism-based; conditions: time 77.0 day
NCI-H2228-Luc [18] = assay: In vivo antitumor activity against human NCI-H2228-Luc cells xenografted in CB17.Cg.Prkdc-scid Lystbg-j/CrlCrlj mouse assessed as reduction in tumor volume at 25 mg/kg, po administered every day (35 administration in total); format: functional, organism-based; conditions: time 35.0 day
NCI-H2228-Luc [19] = assay: In vivo antitumor activity against human NCI-H2228-Luc cells xenografted in CB17.Cg.Prkdc-scid Lystbg-j/CrlCrlj mouse assessed as prolonged reduction in tumor volume at 25 mg/kg, po administered every day (35 administration in total) measured after 70 days of last dose; format: functional, organism-based; conditions: time 70.0 day
NCI-H2228-Luc [20] = assay: In vivo antitumor activity against human NCI-H2228-Luc cells xenografted in CB17.Cg.Prkdc-scid Lystbg-j/CrlCrlj mouse assessed as prolonged reduction in tumor volume (cancer free) at 25 mg/kg, po administered every day (35 administration in total) measured after 15 days of last dose; format: functional, organism-based; conditions: time 50.0 day

Question: For `CN(C)CCCNC(=O)c1cc(NC(=O)c2cc(NC(=O)c3nc(NC(=O)c4nc(NC(=O)CCCNC(=O)c5cc(NC(=O)c6cc(NC(=O)c7nc(NC(=O)c8nc(NC(=O)CCNC(=O)CCCc9ccc(N(CCCl)CCCl)cc9)cn8C)cn7C)cn6C)cn5C)cn4C)cn3C)cn2C)cn1C`, which Activity (NCI-H2228-Luc [1]) is on record?
Answer: Its Activity is “inactive”.

Question: And the Activity (BJ)?
Answer: Its Activity is “Non-Toxic”.

Question: Which results are given for `CN(C)CCCNC(=O)c1cc(NC(=O)c2cc(NC(=O)c3cc(NC(=O)c4cc(NC(=O)CCCNC(=O)c5nc(NC(=O)c6nc(NC(=O)c7cc(NC(=O)c8nc(NC(=O)CCNC(=O)CCCc9ccc(N(CCCl)CCCl)cc9)cn8C)cn7C)cn6C)cn5C)cn4C)cn3C)cn2C)cn1C`?
Answer: Activity [2]: Non-Toxic; Activity (NCI-H2228-Luc [3]): Active; Activity [4]: Non-Toxic; Activity (NCI-H2228-Luc [5]): Active; Activity [6]: Non-Toxic; Activity (NCI-H2228-Luc [7]): Active; Activity (NCI-H2228-Luc [8]): Active; Activity (NCI-H2228-Luc [9]): Active; Activity (NCI-H2228-Luc [10]): Active; Activity (NCI-H2228-Luc [11]): Dose-Dependent Effect; Activity (NCI-H2228-Luc [12]): Active; Activity (BJ): Non-Toxic; Activity [13]: Non-Toxic; Activity (NCI-H2228-Luc [14]): Dose-Dependent Effect; Activity (NCI-H2228-Luc [15]): Active

Question: What does the source list for `CN(C)CCCNC(=O)c1cc(NC(=O)c2cc(NC(=O)c3cc(NC(=O)c4cc(NC(=O)CCCNC(=O)c5nc(NC(=O)c6nc(NC(=O)c7cc(NC(=O)c8nc(NC(=O)CCNC(=O)CCCc9ccc(N(CCO)CCO)cc9)cn8C)cn7C)cn6C)cn5C)cn4C)cn3C)cn2C)cn1C`?
Answer: Activity (NCI-H2228-Luc [1]): inactive; Activity (BJ): Non-Toxic

Question: Which Activity (NCI-H2228-Luc [16]) does the source give for `CCc1cc2c(cc1N1CCC(N3CCOCC3)CC1)C(C)(C)c1[nH]c3cc(C#N)ccc3c1C2=O` here?
Answer: Its Activity is “Active”.

Question: And the Activity (NCI-H2228-Luc [17])?
Answer: Its Activity is “inactive”.

Question: What about the Activity (NCI-H2228-Luc [18]) of the same molecule?
Answer: Its Activity is “Active”.

Question: Which Activity (NCI-H2228-Luc [1]) does the source give for `O=C(O)CCCc1ccc(N(CCCl)CCCl)cc1` [CHLORAMBUCIL] here?
Answer: Its Activity is “inactive”.

Question: And the Activity (BJ)?
Answer: Its Activity is “Non-Toxic”.

Question: Which results are given for `Cc1cc(Nc2ncc(Cl)c(Nc3ccccc3S(=O)(=O)C(C)C)n2)c(OC(C)C)cc1C1CCNCC1`?
Answer: Activity (NCI-H2228-Luc [19]): inactive; Activity (NCI-H2228-Luc [20]): Active; Activity (NCI-H2228-Luc [18]): Active
